Assay results from patent US20250296938A1, “Compounds that Interact with the Ras Superfamily for the Treatment of Cancers, Inflammatory Diseases, Rasopathies, and Fibrotic Disease” (SHY Therapeutics, LLC, priority 2018, published 2025).
Read-outs that look alike come from different tables or passages of the source.

Columns and labels:
Assay in all cases: Ras GTP binding domain inhibition assay (Cy3-GTP/Cy5-GTP competition)
KRas G12C mutant = tested on: KRas G12C mutant; set-up: species or system human; conditions: 20 μM
Outline: (§1)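 Ni-plate immobilised His-Ras, overnight 4 °C; cpd 20 μM (or dilution series for IC50), 1% DMSO, 3 h RT; optional His-Sos […] last hour; Cy3- or Cy5-GTP 100 nM, 45 min RT; 3× wash; bound fluorescence read.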

KRas Q61H mutant = tested on: KRas Q61H mutant; set-up: species or system human; conditions: 20 μM
Outline: as §1

KRas wild type = tested on: KRas wild type; set-up: species or system human; conditions: 20 μM; for KRas wild type % inh.: without SOS (Table 7A); for KRas wild type: % inh.: without SOS
Outline: as §1

KRas G12D mutant = target: T1, KRas G12D mutant (Homo sapiens, UniProt P01116, G12D); conditions: 20 μM
T1 construct: fused on or other part: His tag, used for capture on nickel-coated plates
Outline: as §1

[1] = with SOS (Table 7A), read-out: KRas G12D mutant + SOS: % inh.
[2] = without SOS (Table 7A), read-out: KRas G12D mutant: % inh.
[3] = with SOS, read-out: KRas G-12D mutant + SOS: % inh.
[4] = without SOS, read-out: KRas G12D mutant: % inh.

KRas G12C mutant + SOS: % inh. (KRas G12C mutant; with SOS (Table 7A)) | KRas G12C mutant: % inh. (KRas G12C mutant; without SOS (Table 7A)) | KRas Q61H mutant + SOS: % inh. (KRas Q61H mutant; with SOS (Table 7A)) | KRas Q61H mutant: % inh. (KRas Q61H mutant; without SOS (Table 7A)) | KRas wild type + SOS: % inh. (KRas wild type; with SOS (Table 7A)) | KRas wild type % inh. (KRas wild type) | inhibition at 20 µM (KRas G12D mutant; [1]) | inhibition at 20 µM (KRas G12D mutant; [2]) | KRas G12C mutant + SOS: % inh. (KRas G12C mutant; with SOS) | KRas G12C mutant: % inh. (KRas G12C mutant; without SOS) | KRas Q61H mutant + SOS: % inh. (KRas Q61H mutant; with SOS) | KRas Q61H mutant: % inh. (KRas Q61H mutant; without SOS) | KRas wild type + SOS: % inh. (KRas wild type; with SOS) | KRas wild type: % inh. (KRas wild type) | inhibition at 20 µM (KRas G12D mutant; [3]) | inhibition at 20 µM (KRas G12D mutant; [4]) | Compound
A (1-25% inhibition) | A (1-25% inhibition) | A (1-25% inhibition) | B (26-50% inhibition) | A (1-25% inhibition) | B (26-50% inhibition) | 1 to 25% | 26 to 50% | – | – | – | – | – | – | – | – | COc1nc(-c2ccccn2)nc2c(-c3ccccn3)csc12 [drawing 913]
C (51-75% inhibition) | C (51-75% inhibition) | C (51-75% inhibition) | D (76-100% inhibition) | C (51-75% inhibition) | C (51-75% inhibition) | 51 to 75% | 51 to 75% | – | – | – | – | – | – | – | – | CO[C@H]1C[C@@H](Nc2nc(-c3ccccn3)nc3sccc23)C1 [drawing 902]
B (26-50% inhibition) | C (51-75% inhibition) | C (51-75% inhibition) | C (51-75% inhibition) | B (26-50% inhibition) | C (51-75% inhibition) | 51 to 75% | 51 to 75% | – | – | – | – | – | – | – | – | COc1cccc(Cn2ccnc2-c2nc(O)c3scc(-c4ccc(OCC(C)C)nc4)c3n2)c1 [drawing 900]
– | – | – | – | – | – | – | – | A (1-25% inhibition) | 0 (0% inhibition) | A (1-25% inhibition) | C (51-75% inhibition) | A (1-25% inhibition) | B (26-50% inhibition) | 1 to 25% | 26 to 50% | COCCNc1nc(-c2nccn2C)nc2sc(-c3cc(OC)ccc3Cl)c(-c3ccccc3)c12 [drawing 871]
– | – | – | – | – | – | – | – | B (26-50% inhibition) | C (51-75% inhibition) | B (26-50% inhibition) | C (51-75% inhibition) | B (26-50% inhibition) | C (51-75% inhibition) | 26 to 50% | 51 to 75% | O=C(c1nc(-c2ccccn2)nc(O)c1O)N1CCc2ccccc2C1 [drawing 832]
– | – | – | – | – | – | – | – | D (76-100% inhibition) | A (1-25% inhibition) | D (76-100% inhibition) | B (26-50% inhibition) | D (76-100% inhibition) | B (26-50% inhibition) | 51 to 75% | 51 to 75% | COC1CCN(c2nc(-c3nccn3C)nc3sc(-c4ccccc4CO)c(-c4ccccc4)c23)C1.Cl (stereo not shown)
– | – | – | – | – | – | – | – | B (26-50% inhibition) | C (51-75% inhibition) | B (26-50% inhibition) | C (51-75% inhibition) | B (26-50% inhibition) | C (51-75% inhibition) | 26 to 50% | 26 to 50% | CN(Cc1ccccc1)C(=O)c1nc(-c2ccccn2)nc(O)c1O [drawing 799]
– | – | – | – | – | – | – | – | B (26-50% inhibition) | B (26-50% inhibition) | B (26-50% inhibition) | A (1-25% inhibition) | A (1-25% inhibition) | B (26-50% inhibition) | 26 to 50% | 26 to 50% | COC1CCN(c2nc(-c3nccn3C)nc3sc(-c4ccncc4C)c(-c4ccccc4)c23)C1.Cl (stereo not shown)
